Reference: paper PMC3119665, “A New Drug Design Targeting the Adenosinergic System for Huntington's Disease” (PLoS ONE, 2011)

Legend:
[1] = system: Adrenergic α 1, Non-Selective; assay: Radioligand binding panel (Table S1); parameters: species or system rat; details: 10 μM T1-11, n 2
Adrenergic α 1A = target: T1, Adrenergic α 1A (Rattus norvegicus, UniProt P43140); assay: Radioligand binding panel (Table S1); details: 10 μM T1-11, n 2
T1 construct: purchased MDS Pharma Services Taiwan

Adrenergic α 2C = target: T2, Adrenergic α 2C (Homo sapiens, UniProt P18825); assay: Radioligand binding panel (Table S1); details: 10 μM T1-11, n 2
T2 construct: purchased MDS Pharma Services Taiwan

Angiotensin AT2 = target: T3, Angiotensin AT2 (Homo sapiens, UniProt P50052); assay: Radioligand binding panel (Table S1); details: 10 μM T1-11, n 2
T3 construct: purchased MDS Pharma Services Taiwan

Bombesin BB1 = target: T4, Bombesin BB1 (Homo sapiens, UniProt P28336); assay: Radioligand binding panel (Table S1); details: 10 μM T1-11, n 2
T4 construct: purchased MDS Pharma Services Taiwan

Bombesin BB3 = target: T5, Bombesin BB3 (Homo sapiens, UniProt P32247); assay: Radioligand binding panel (Table S1); details: 10 μM T1-11, n 2
T5 construct: purchased MDS Pharma Services Taiwan

Bradykinin B1 = target: T6, Bradykinin B1 (Homo sapiens, UniProt P46663); assay: Radioligand binding panel (Table S1); details: 10 μM T1-11, n 2
T6 construct: purchased MDS Pharma Services Taiwan

Calcitonin = target: T7, Calcitonin (Homo sapiens, UniProt P30988); assay: Radioligand binding panel (Table S1); details: 10 μM T1-11, n 2
T7 construct: purchased MDS Pharma Services Taiwan

[2] = target: T8, Cholecystokinin CCK. (CCKA) (Homo sapiens, UniProt P32238); assay: Radioligand binding panel (Table S1); details: 10 μM T1-11, n 2
T8 construct: purchased MDS Pharma Services Taiwan

Estrogen ERα = target: T9, Estrogen ERα (Homo sapiens, UniProt P03372); assay: Radioligand binding panel (Table S1); details: 10 μM T1-11, n 2
T9 construct: purchased MDS Pharma Services Taiwan

GABAA, Non-Selective = assay: Radioligand binding panel (Table S1); parameters: species or system rat; details: 10 μM T1-11, n 2
[3] = system: Glycine, Strychnine-Sensitive; assay: Radioligand binding panel (Table S1); parameters: species or system rat; details: 10 μM T1-11, n 2
Interleukin IL-1 = target: T10, Interleukin IL-1 (Mus musculus, UniProt P13504); assay: Radioligand binding panel (Table S1); details: 10 μM T1-11, n 2
T10 construct: purchased MDS Pharma Services Taiwan

Interleukin IL-2 = target: T11, Interleukin IL-2 (Mus musculus, UniProt P01590+P16297+P34902); assay: Radioligand binding panel (Table S1); details: 10 μM T1-11, n 2
T11 construct: purchased MDS Pharma Services Taiwan

Leukotriene, BLT (LTB4) = target: T12, Leukotriene, BLT (LTB4) (Homo sapiens, UniProt Q15722); assay: Radioligand binding panel (Table S1); details: 10 μM T1-11, n 2
T12 construct: purchased MDS Pharma Services Taiwan

Melanocortin MC5 = target: T13, Melanocortin MC5 (Homo sapiens, UniProt P33032); assay: Radioligand binding panel (Table S1); details: 10 μM T1-11, n 2
T13 construct: purchased MDS Pharma Services Taiwan

[4] = system: Melatonin MT, Non-Selective; assay: Radioligand binding panel (Table S1); parameters: species or system chicken; details: 10 μM T1-11, n 2
Muscarinic M2 = target: T14, Muscarinic M2 (Homo sapiens, UniProt P08172); assay: Radioligand binding panel (Table S1); details: 10 μM T1-11, n 2
T14 construct: purchased MDS Pharma Services Taiwan

[5] = system: Muscarinic, Non-Selective, Central; assay: Radioligand binding panel (Table S1); parameters: species or system rat; details: 10 μM T1-11, n 2
Neurotensin NT 1 = target: T15, Neurotensin NT 1 (Homo sapiens, UniProt P30989); assay: Radioligand binding panel (Table S1); details: 10 μM T1-11, n 2
T15 construct: purchased MDS Pharma Services Taiwan

Opiate μ (OP3, MOP) = target: T16, Opiate μ (OP3, MOP) (Homo sapiens, UniProt P35372); assay: Radioligand binding panel (Table S1); details: 10 μM T1-11, n 2
T16 construct: purchased MDS Pharma Services Taiwan

Orphanin ORL1 = target: T17, Orphanin ORL1 (Homo sapiens, UniProt P41146); assay: Radioligand binding panel (Table S1); details: 10 μM T1-11, n 2
T17 construct: purchased MDS Pharma Services Taiwan

[6] = target: T18, Platelet Activating Factor (PAF) (Homo sapiens, UniProt P25105); assay: Radioligand binding panel (Table S1); details: 10 μM T1-11, n 2
T18 construct: purchased MDS Pharma Services Taiwan

hERG potassium channel = target: T19, hERG potassium channel (Homo sapiens, UniProt Q12809); assay: Radioligand binding panel (Table S1); details: 10 μM T1-11, n 2
T19 construct: purchased MDS Pharma Services Taiwan

Progesterone PR-B = target: T20, Progesterone PR-B (Homo sapiens, UniProt P06401); assay: Radioligand binding panel (Table S1); details: 10 μM T1-11, n 2
T20 construct: purchased MDS Pharma Services Taiwan

Prostanoid CRTH2 = target: T21, Prostanoid CRTH2 (Homo sapiens, UniProt Q9Y5Y4); assay: Radioligand binding panel (Table S1); details: 10 μM T1-11, n 2
T21 construct: purchased MDS Pharma Services Taiwan

Prostanoid EP4 = target: T22, Prostanoid EP4 (Homo sapiens, UniProt P35408); assay: Radioligand binding panel (Table S1); details: 10 μM T1-11, n 2
T22 construct: purchased MDS Pharma Services Taiwan

[7] = target: T23, Serotonin (5-Hydroxytryptamine) 5-HT2A (Homo sapiens, UniProt P28223); assay: Radioligand binding panel (Table S1); details: 10 μM T1-11, n 2
T23 construct: purchased MDS Pharma Services Taiwan
Experimental: Radoligand binding assays were performed by MDS Pharma Services Taiwan (Taipei, Taiwan) using standard binding protocols. For the binding assay of the A2AR [67], membrane proteins collected from HEK293 cells overexpressing the human A2AR were incubated in reaction buffer [50 mM Tris-HCl (pH 7.4), 10 mM MgCl2, 1 mM EDTA, and 2 U/mL adenosine deaminase] containing ^3H-CGS21680 (50 nM) for 90 min at 25°C. Nonspecific binding was assessed in the presence of 50 µM adenosine- 5′-N-ethylcarboxamide. […] Nonspecific binding was assessed in the presence of 1 µM IB-MECA (Tocris Bioscience, Ellisville, MS, USA).

[8] = target: T24, Serotonin (5-Hydroxytryptamine) 5-HT3 (Homo sapiens, UniProt P46098); assay: Radioligand binding panel (Table S1); details: 10 μM T1-11, n 2
T24 construct: purchased MDS Pharma Services Taiwan

Sigma σ1 = target: T25, Sigma σ1 (Homo sapiens, UniProt Q99720); assay: Radioligand binding panel (Table S1); details: 10 μM T1-11, n 2
T25 construct: purchased MDS Pharma Services Taiwan

Somatostatin sst3 = target: T26, Somatostatin sst3 (Homo sapiens, UniProt P32745); assay: Radioligand binding panel (Table S1); details: 10 μM T1-11, n 2
T26 construct: purchased MDS Pharma Services Taiwan

Somatostatin sst4 = target: T27, Somatostatin sst4 (Homo sapiens, UniProt P31391); assay: Radioligand binding panel (Table S1); details: 10 μM T1-11, n 2
T27 construct: purchased MDS Pharma Services Taiwan

Transporter, Choline = target: T28, Transporter, Choline (Rattus norvegicus, UniProt Q9JMD7); assay: Radioligand binding panel (Table S1); details: 10 μM T1-11, n 2
T28 construct: purchased MDS Pharma Services Taiwan

[9] = target: T29, Vasoactive Intestinal Peptide VIP1 (Homo sapiens, UniProt P32241); assay: Radioligand binding panel (Table S1); details: 10 μM T1-11, n 2
T29 construct: purchased MDS Pharma Services Taiwan

A2AR = target: T30, A2AR (Rattus norvegicus, UniProt P30543); assay: cAMP assay in PC12 cells; type: cell-based
T30 construct: Treatment of PC12 cells with T1-11 dose-dependently elevated the cellular cAMP levels; endogenous in cells; host or cells: PC12
Experimental: PC12 cells were plated at the density of 5×10^5 cells/well (on 12-well plates) and incubated with the indicated reagent(s) for the desired period of time. Cells were washed twice with ice-cold Locke's solution (150 mM NaCl, 5.6 mM KCl, 5 mM glucose, 1 mM MgCl2, and 10 mM HEPES, adjusted to pH 7.4). Cellular cAMP was extracted by adding 0.3 ml of 0.1 M HCl to each well and incubating this for 10 min on ice.

T30 sequence (P30543 whole entry): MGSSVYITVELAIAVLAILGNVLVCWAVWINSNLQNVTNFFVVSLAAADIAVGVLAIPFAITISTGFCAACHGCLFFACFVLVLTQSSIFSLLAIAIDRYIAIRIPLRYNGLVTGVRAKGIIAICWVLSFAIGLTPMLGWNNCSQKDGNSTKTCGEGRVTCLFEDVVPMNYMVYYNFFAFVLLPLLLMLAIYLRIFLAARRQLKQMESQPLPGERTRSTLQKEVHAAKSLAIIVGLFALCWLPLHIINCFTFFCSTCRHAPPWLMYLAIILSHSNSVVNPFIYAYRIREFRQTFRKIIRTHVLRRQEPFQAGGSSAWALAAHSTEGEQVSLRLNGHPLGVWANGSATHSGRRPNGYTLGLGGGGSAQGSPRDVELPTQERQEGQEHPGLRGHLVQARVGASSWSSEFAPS
T27 sequence (P31391 whole entry): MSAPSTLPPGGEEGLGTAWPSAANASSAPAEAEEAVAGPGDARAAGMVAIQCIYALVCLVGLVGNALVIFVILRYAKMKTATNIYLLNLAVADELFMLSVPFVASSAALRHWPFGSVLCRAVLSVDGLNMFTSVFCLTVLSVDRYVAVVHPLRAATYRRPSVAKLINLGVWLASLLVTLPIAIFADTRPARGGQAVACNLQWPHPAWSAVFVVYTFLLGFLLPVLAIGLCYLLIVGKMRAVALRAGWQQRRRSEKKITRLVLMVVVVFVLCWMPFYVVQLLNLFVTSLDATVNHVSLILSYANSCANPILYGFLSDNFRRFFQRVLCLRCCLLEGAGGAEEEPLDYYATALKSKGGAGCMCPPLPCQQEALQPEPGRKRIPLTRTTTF
T29 sequence (P32241 31-457): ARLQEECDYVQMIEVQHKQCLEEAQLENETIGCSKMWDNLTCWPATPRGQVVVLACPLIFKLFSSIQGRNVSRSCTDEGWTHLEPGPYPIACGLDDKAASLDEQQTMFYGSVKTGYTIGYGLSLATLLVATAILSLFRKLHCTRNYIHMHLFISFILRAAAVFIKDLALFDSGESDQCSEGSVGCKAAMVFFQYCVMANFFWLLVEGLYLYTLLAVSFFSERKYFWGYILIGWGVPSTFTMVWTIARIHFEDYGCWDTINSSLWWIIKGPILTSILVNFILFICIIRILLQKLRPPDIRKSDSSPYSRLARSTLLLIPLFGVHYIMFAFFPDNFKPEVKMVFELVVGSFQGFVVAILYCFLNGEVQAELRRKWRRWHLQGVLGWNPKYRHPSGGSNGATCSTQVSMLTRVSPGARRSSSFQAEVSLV
T13 sequence (P33032 whole entry): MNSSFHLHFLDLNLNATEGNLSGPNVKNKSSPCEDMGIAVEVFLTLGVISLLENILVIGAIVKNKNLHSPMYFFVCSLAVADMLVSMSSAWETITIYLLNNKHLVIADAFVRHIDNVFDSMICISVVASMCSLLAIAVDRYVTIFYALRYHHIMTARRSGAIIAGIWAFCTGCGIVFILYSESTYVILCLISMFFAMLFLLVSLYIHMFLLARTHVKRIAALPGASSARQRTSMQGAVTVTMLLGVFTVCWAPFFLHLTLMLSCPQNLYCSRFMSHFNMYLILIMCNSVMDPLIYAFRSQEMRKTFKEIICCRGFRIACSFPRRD
T1 sequence (P43140 whole entry): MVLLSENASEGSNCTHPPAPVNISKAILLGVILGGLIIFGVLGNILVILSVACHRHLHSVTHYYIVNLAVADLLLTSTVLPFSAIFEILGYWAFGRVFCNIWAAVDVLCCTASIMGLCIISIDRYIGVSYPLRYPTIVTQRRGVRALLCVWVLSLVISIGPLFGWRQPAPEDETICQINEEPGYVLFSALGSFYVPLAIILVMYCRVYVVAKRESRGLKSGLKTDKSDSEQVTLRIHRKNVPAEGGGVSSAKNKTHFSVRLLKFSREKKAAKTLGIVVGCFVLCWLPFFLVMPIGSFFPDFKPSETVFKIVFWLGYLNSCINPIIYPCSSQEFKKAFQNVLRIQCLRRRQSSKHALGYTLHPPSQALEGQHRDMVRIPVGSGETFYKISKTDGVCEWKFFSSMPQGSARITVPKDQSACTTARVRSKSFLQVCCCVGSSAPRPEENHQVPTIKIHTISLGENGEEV
T6 sequence (P46663 whole entry): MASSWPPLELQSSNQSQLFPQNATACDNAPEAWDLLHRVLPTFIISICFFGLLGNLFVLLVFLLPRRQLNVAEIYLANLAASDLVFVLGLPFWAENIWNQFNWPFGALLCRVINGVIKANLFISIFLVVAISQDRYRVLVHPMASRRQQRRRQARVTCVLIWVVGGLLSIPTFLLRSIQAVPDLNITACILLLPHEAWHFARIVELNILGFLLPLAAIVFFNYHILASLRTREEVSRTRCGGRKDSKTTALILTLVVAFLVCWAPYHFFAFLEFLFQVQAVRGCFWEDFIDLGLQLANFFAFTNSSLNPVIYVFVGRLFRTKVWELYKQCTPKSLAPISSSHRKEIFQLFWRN
T17 sequence (P41146 whole entry): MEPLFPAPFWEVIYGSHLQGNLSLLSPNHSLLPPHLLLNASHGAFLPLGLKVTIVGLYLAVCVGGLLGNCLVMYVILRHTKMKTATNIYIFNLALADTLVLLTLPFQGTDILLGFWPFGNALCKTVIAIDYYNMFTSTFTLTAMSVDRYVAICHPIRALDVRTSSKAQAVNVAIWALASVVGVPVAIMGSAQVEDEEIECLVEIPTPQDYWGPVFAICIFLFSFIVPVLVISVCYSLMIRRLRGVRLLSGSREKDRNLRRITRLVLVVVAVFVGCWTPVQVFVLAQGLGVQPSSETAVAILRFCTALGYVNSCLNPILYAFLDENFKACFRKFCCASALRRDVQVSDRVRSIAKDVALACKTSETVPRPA
T23 sequence (P28223 whole entry): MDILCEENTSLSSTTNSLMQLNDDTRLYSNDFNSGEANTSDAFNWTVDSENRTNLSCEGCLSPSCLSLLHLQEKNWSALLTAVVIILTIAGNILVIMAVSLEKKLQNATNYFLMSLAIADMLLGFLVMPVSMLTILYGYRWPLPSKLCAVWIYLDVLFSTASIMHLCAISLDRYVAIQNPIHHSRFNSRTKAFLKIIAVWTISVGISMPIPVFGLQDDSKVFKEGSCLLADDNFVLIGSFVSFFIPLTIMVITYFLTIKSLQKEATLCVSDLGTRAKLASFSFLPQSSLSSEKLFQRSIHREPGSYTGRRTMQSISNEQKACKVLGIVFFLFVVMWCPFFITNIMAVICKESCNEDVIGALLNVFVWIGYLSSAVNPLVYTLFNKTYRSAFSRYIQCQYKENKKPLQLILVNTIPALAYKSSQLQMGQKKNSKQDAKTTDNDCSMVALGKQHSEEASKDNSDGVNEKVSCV
T18 sequence (P25105 whole entry): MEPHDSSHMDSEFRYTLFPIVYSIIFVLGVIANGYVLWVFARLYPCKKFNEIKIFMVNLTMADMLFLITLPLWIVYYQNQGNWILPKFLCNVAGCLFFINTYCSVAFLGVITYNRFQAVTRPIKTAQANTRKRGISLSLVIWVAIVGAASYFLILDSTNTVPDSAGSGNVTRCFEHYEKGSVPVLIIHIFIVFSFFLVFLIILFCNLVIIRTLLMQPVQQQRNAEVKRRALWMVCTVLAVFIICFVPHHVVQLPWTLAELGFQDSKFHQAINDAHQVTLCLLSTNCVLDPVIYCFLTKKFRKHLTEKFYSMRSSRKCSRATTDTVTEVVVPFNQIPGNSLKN
T10 sequence (P13504 20-576): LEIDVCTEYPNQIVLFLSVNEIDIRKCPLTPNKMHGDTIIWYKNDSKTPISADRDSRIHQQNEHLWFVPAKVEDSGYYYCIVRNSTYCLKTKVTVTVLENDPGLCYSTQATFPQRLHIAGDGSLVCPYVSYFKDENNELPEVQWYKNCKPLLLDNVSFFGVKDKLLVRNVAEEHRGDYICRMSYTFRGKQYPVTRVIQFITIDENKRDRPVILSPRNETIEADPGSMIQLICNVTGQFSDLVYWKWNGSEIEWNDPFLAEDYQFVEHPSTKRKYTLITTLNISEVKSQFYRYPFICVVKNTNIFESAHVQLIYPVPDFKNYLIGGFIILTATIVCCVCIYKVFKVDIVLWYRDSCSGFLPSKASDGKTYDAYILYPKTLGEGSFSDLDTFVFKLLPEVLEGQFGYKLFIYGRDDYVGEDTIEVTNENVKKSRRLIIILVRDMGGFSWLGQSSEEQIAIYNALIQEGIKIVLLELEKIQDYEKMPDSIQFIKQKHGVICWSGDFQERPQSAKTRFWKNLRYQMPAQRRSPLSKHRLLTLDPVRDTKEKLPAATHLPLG
T28 sequence (Q9JMD7 whole entry): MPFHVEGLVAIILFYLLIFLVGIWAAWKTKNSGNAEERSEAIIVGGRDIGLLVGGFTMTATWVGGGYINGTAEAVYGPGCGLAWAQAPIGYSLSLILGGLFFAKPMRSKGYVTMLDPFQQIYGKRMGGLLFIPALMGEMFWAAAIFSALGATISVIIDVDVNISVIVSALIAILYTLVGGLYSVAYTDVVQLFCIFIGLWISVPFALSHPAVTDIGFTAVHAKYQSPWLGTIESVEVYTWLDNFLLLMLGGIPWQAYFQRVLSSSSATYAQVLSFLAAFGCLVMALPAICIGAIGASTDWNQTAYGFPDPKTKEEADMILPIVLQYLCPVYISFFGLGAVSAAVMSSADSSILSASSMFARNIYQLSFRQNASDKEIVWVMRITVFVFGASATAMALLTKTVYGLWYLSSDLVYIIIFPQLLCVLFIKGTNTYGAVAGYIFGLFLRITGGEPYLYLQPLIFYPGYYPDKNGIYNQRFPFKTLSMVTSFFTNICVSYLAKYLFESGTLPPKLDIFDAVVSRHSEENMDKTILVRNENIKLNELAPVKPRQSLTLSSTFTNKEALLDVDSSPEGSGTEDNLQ
T25 sequence (Q99720 whole entry): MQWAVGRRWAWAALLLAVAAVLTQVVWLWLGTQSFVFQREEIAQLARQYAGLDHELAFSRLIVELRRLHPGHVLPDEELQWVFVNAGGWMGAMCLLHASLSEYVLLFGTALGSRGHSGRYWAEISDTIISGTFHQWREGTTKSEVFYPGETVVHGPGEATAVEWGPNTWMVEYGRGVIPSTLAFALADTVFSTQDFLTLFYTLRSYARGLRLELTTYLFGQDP

OC[C@H]1O[C@@H](n2cnc3c(NCc4ccc(O)cc4)ncnc32)[C@H](O)[C@@H]1O [T1-11, N ^6-(4-hydroxybenzyl)adenine riboside]
% Inhibition [1]: -3%
inhibition at 10 µM (Adrenergic α 1A): -14%
inhibition at 10 µM (Adrenergic α 2C): 10%
inhibition at 10 µM (Angiotensin AT2): 3%
inhibition at 10 µM (Bombesin BB1): -5%
inhibition at 10 µM (Bombesin BB3): 12%
inhibition at 10 µM (Bradykinin B1): -8%
inhibition at 10 µM (Calcitonin): 15%
inhibition at 10 µM [2]: -3%
inhibition at 10 µM (Estrogen ERα): 32%
% Inhibition (GABAA, Non-Selective): 5%
% Inhibition [3]: 10%
inhibition at 10 µM (Interleukin IL-1): 4%
inhibition at 10 µM (Interleukin IL-2): 0%
inhibition at 10 µM (Leukotriene, BLT (LTB4)): -6%
inhibition at 10 µM (Melanocortin MC5): 1%
% Inhibition [4]: -3%
inhibition at 10 µM (Muscarinic M2): 4%
% Inhibition [5]: 12%
inhibition at 10 µM (Neurotensin NT 1): 11%
inhibition at 10 µM (Opiate μ (OP3, MOP)): 5%
inhibition at 10 µM (Orphanin ORL1): 10%
inhibition at 10 µM [6]: 7%
inhibition at 10 µM (hERG potassium channel): -2%
inhibition at 10 µM (Progesterone PR-B): -8%
inhibition at 10 µM (Prostanoid CRTH2): 0%
inhibition at 10 µM (Prostanoid EP4): -6%
inhibition at 10 µM [7]: 19%
inhibition at 10 µM [8]: 5%
inhibition at 10 µM (Sigma σ1): 7%
inhibition at 10 µM (Somatostatin sst3): 15%
inhibition at 10 µM (Somatostatin sst4): 5%
inhibition at 10 µM (Transporter, Choline): -10%
inhibition at 10 µM [9]: 2%
Function (A2AR; A2A adenosine receptor, elevates cellular cAMP levels): agonist
EC50 (A2AR; PC12 cells, 20 min at RT, read-out: EC50, elevation of cellular cAMP levels): ~2200 nM
